{
  "source": "patent US20100035762A1",
  "about": "“Prognostic Methods in Colorectal Cancer” (Oryzon Genomics, S.A., priority 2006, published 2010)",
  "key": {"[1]": {"tested_on": "EphB4 gene expression in SW620 cells", "assay": "Treatment of colorectal cancer cell line SW620, EphB4 gene expression by RT-PCR", "assay_type": "cell-based", "settings": "72 h", "procedure": "(§1) Top panel: changes in gene expression a measured by RT-PCR. Lower panel: changes in methylation a measure by PCR on bisulfite treated DNA with methylation specific primers.\n(§2) Cultures of the colorectal cancer cell line SW620, characterized by a low expression level and methylation the EphB4 promoter; were treated during 72 h with different concentrations of 5aza- cytidin."}, "EphB4 promoter": {"tested_on": "EphB4 promoter", "assay": "Treatment of SW620, EphB4 promoter methylation by PCR on bisulfite treated DNA with methylation specific primers", "assay_type": "cell-based", "settings": "SW620 cells", "procedure": "as §1, §2"}},
  "data": [
    {"compound": "Nc1ncn([C@@H]2O[C@H](CO)[C@@H](O)[C@H]2O)c(=O)n1", "note": "[5-aza-cytidine]", "values": [
      {"measurement": "most effective dose for increase of EphB4 gene expression", "setting": "[1]", "result": 10, "unit": "µM"},
      {"measurement": "level of EphB4 gene expression", "setting": "[1]; different concentrations", "result": "increase"},
      {"measurement": "methylation of the EphB4 promoter", "setting": "EphB4 promoter", "result": "reduces the methylation"}
    ]}
  ]
}
